Data from the supplement of paper PMC11451515.

Test system: NOMO1
Assay: cell viability relative to DMSO control; higher = less cytotoxic
Settings: 48 h
Summary of the method: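 Library compounds in DMSO were pin-dosed in an 11-point threefold series (47 μM to 0.79 nM) onto leukemia cells in 1536-well plates (5 μl). Plates held 500 cells/well of NOMO1 or SEM or 1000 cells/well of P12-Ichikawa, each adapted for at least four passages in each medium. Luminescence was read with CellTiter-Glo One after 48 h at 37°C. Viability means the per-plate percentage relative to DMSO wells, using cell-free wells as background.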

[1] = HPLM + 10% dialyzed FBS, 0.000781 µM
[2] = HPLM + 10% dialyzed FBS, 0.00234 µM
[3] = HPLM + 10% dialyzed FBS, 0.00702 µM
[4] = HPLM + 10% dialyzed FBS, 0.0211 µM
[5] = HPLM + 10% dialyzed FBS, 0.0632 µM
[6] = HPLM + 10% dialyzed FBS, 0.19 µM
[7] = HPLM + 10% dialyzed FBS, 0.569 µM
[8] = HPLM + 10% dialyzed FBS, 1.71 µM
[9] = HPLM + 10% dialyzed FBS, 5.12 µM
[10] = HPLM + 10% dialyzed FBS, 15.4 µM
[11] = HPLM + 10% dialyzed FBS, 46.1 µM
[12] = RPMI 5 mM glucose + 10% FBS, 0.000781 µM
[13] = RPMI 5 mM glucose + 10% FBS, 0.00234 µM
[14] = RPMI 5 mM glucose + 10% FBS, 0.00702 µM
[15] = RPMI 5 mM glucose + 10% FBS, 0.0211 µM
[16] = RPMI 5 mM glucose + 10% FBS, 0.0632 µM
[17] = RPMI 5 mM glucose + 10% FBS, 0.19 µM
[18] = RPMI 5 mM glucose + 10% FBS, 0.569 µM
[19] = RPMI 5 mM glucose + 10% FBS, 1.71 µM
[20] = RPMI 5 mM glucose + 10% FBS, 5.12 µM
[21] = RPMI 5 mM glucose + 10% FBS, 15.4 µM
[22] = RPMI 5 mM glucose + 10% FBS, 46.1 µM
[23] = RPMI 5 mM glucose + 10% dialyzed FBS, 0.000781 µM
[24] = RPMI 5 mM glucose + 10% dialyzed FBS, 0.00234 µM
[25] = RPMI 5 mM glucose + 10% dialyzed FBS, 0.00702 µM
[26] = RPMI 5 mM glucose + 10% dialyzed FBS, 0.0211 µM
[27] = RPMI 5 mM glucose + 10% dialyzed FBS, 0.0632 µM
[28] = RPMI 5 mM glucose + 10% dialyzed FBS, 0.19 µM
[29] = RPMI 5 mM glucose + 10% dialyzed FBS, 0.569 µM
[30] = RPMI 5 mM glucose + 10% dialyzed FBS, 1.71 µM
[31] = RPMI 5 mM glucose + 10% dialyzed FBS, 5.12 µM
[32] = RPMI 5 mM glucose + 10% dialyzed FBS, 15.4 µM
[33] = RPMI 5 mM glucose + 10% dialyzed FBS, 46.1 µM

Row | Structure (SMILES) | cell viability [1] [%] | cell viability [2] [%] | cell viability [3] [%] | cell viability [4] [%] | cell viability [5] [%] | cell viability [6] [%] | cell viability [7] [%] | cell viability [8] [%] | cell viability [9] [%] | cell viability [10] [%] | cell viability [11] [%] | cell viability [12] [%] | cell viability [13] [%] | cell viability [14] [%] | cell viability [15] [%] | cell viability [16] [%] | cell viability [17] [%] | cell viability [18] [%] | cell viability [19] [%] | cell viability [20] [%] | cell viability [21] [%] | cell viability [22] [%] | cell viability [23] [%] | cell viability [24] [%] | cell viability [25] [%] | cell viability [26] [%] | cell viability [27] [%] | cell viability [28] [%] | cell viability [29] [%] | cell viability [30] [%] | cell viability [31] [%] | cell viability [32] [%] | cell viability [33] [%]
1 | COC1=C(N2CCNC(C)C2)C(=CC3=C1N(\C=C(C(O)=O)/C3=O)C4CC4)F (centres undefined) | 89.4 | 82.7 | 103 | 115 | 105 | 123 | 103 | 117 | 95.2 | 92.8 | 77.2 | 100 | 87.7 | 88.6 | 99.5 | 96 | 96.8 | 96.6 | 104 | 20.3 | 111 | 103 | 97.6 | 86.9 | 98.2 | 94.3 | 100 | 110 | 94 | 99.3 | 74.2 | 99.1 | 95.8
2 | NC(=O)c1cnc(N[C@@H]2CCCC[C@@H]2N)nc1Nc1cccc(-n2nccn2)c1 | 118 | 120 | 123 | 153 | 140 | 141 | 154 | 116 | 138 | 110 | 75 | – | – | – | – | – | – | – | – | – | – | – | – | – | – | – | – | – | – | – | – | – | –
3 | CC/1=C/C(=O)N(O)/C(=C1)C2CCCCC2 | 110 | 117 | 135 | 146 | 143 | 145 | 140 | 136 | 139 | 79 | 39.8 | – | – | – | – | – | – | – | – | – | – | – | – | – | – | – | – | – | – | – | – | – | –
4 | Cc1ccccc1N1C(=O)c2cc([S+](N)(=O)[O-])c(Cl)cc2NC1C (centres undefined) | 123 | 109 | 121 | 117 | 106 | 120 | 110 | 113 | 37.9 | 82.7 | 123 | 131 | 113 | 124 | 116 | 114 | 118 | 120 | 122 | 28.1 | 94.5 | 107 | 114 | 128 | 124 | 130 | 128 | 119 | 116 | 119 | 35.6 | 77.8 | 109
5 | OC1=C(O)C2=C(\C=C/C(=O)O2)C=C1 | 102 | 111 | 109 | 116 | 113 | 108 | 103 | 109 | 111 | 115 | 128 | 99.7 | 105 | 105 | 116 | 106 | 96.5 | 97.3 | 110 | 97.1 | 107 | 99.4 | 105 | 102 | 108 | 107 | 99.8 | 127 | 111 | 101 | 107 | 110 | 112
6 | C[C@]\12CC[C@H](O)CC1=C/CC3C2CC[C@@]\4(C)C3C\C=C4[N]5C=NC6=C5C=CC=C6 (some centres undefined) | 95.5 | 110 | 99.5 | 96.7 | 105 | 115 | 117 | 102 | 97 | 116 | 110 | 96.4 | 99 | 100 | 103 | 112 | 109 | 117 | 101 | 99.2 | 125 | 100 | 84.8 | 101 | 97.3 | 124 | 110 | 122 | 117 | 113 | 104 | 105 | 112
7 | COC[C@H]1OC(=O)C2=COC3=C2[C@@]1(C)\C4=C(C5CCC(=O)[C@@]5(C)C[C@H]4OC(C)=O)/C3=O (some centres undefined) | 84.5 | 111 | 107 | 36.5 | 111 | 114 | 104 | 114 | 108 | 95 | 102 | 90.1 | 92 | 92.2 | 19.6 | 98.7 | 98.3 | 100 | 91.8 | 93.6 | 91.8 | 107 | 82 | 85.2 | 95.7 | 47.2 | 93.3 | 94.1 | 90.9 | 94.6 | 91.5 | 87.5 | 87.6
8 | CCc1cncnc1N1CCN(Cc2nc3cc(C(F)(F)F)ccc3[nH]2)CC1 | 105 | 114 | 114 | 98.5 | 108 | 97.7 | 97.6 | 94 | 107 | 92 | 64.2 | 95.4 | 87.8 | 99.5 | 93.1 | 90.8 | 93.4 | 90.1 | 90.1 | 81.3 | 79.9 | 74.7 | 95.8 | 82.6 | 93.8 | 100 | 95.3 | 85.5 | 88.8 | 97.4 | 88.6 | 75.8 | 70.3
9 | Cc1nc(NC(=O)N2CCC[C@H]2C(N)=O)sc1-c1ccnc(C(C)(C)C(F)(F)F)c1 | 99.5 | 96.2 | 105 | 81.2 | 85.9 | 81.5 | 75.9 | 70.1 | 46.2 | 44.4 | 71.7 | 86.8 | 84.8 | 88 | 82.7 | 87.5 | 80.2 | 79.4 | 77.8 | 56.3 | 55.3 | 82.5 | 79.6 | 84.8 | 82.2 | 76.8 | 82.2 | 75.6 | 67.8 | 69.2 | 48.3 | 48.2 | 87.7
10 | COc1c(C)cnc(Cn2cnc3c(Cl)nc(N)nc32)c1C | 108 | 112 | 138 | 120 | 151 | 129 | 80.8 | 36.7 | 19.8 | 18.2 | 14.3 | 117 | 112 | 115 | 139 | 129 | 119 | 91.7 | 26.5 | 18.6 | 14.3 | 15.7 | 119 | 122 | 121 | 132 | 128 | 101 | 90.1 | 34.9 | 18.2 | 18 | 20.2
11 | CC(=O)O.Cc1c(-c2ccc(O)cc2)n(Cc2ccc(OCCN3CCCCCC3)cc2)c2ccc(O)cc12 | 95.5 | 106 | 92.7 | 95.6 | 89.6 | 102 | 111 | 103 | 106 | 94.1 | 92.5 | 86.3 | 103 | 92.3 | 92.7 | 88.5 | 105 | 92.3 | 87.5 | 96.5 | 93.9 | 88.6 | 97.5 | 97.9 | 91.4 | 96 | 99.2 | 107 | 103 | 98.1 | 102 | 101 | 86.7
12 | COc1cnc(N[S+](=O)([O-])c2ccc(N)cc2)nc1 | 111 | 114 | 106 | 125 | 125 | 119 | 114 | 130 | 114 | 84.5 | 31.1 | 122 | 118 | 114 | 112 | 124 | 131 | 138 | 128 | 125 | 110 | 48.2 | 110 | 118 | 123 | 125 | 121 | 127 | 114 | 125 | 98.5 | 97.5 | 63.5
13 | CC(C)C(C)/C=C/C(C)C1CCC2C3=CC=C4CC(O)CCC4(C)C3CCC21C (centres undefined) | 104 | 101 | 115 | 111 | 104 | 99.8 | 112 | 106 | 111 | 110 | 94.8 | 86.5 | 97.2 | 90.6 | 88.4 | 96.7 | 88.6 | 89.9 | 92 | 85.1 | 83 | 82.7 | 99.1 | 88.7 | 92.4 | 89.8 | 99.7 | 104 | 94.6 | 97.7 | 86.4 | 81.6 | 90.4
14 | Cc1c(CN2CCN(C(=O)[C@H](C)O)CC2)sc2c(N3CCOCC3)nc(-c3cnc(N)nc3)nc12 | 77.8 | 100 | 89.8 | 90.4 | 86.5 | 71.5 | 53.9 | 46.9 | 33.7 | 39.4 | 40.5 | 79.2 | 93.6 | 93.9 | 88.6 | 91.5 | 86.9 | 69.1 | 58.2 | 52.5 | 47.9 | 43.9 | 79.7 | 94 | 81.2 | 74.5 | 69.5 | 73.7 | 59.1 | 45.4 | 47.8 | 44.6 | 39.3
15 | C\C1=C\C(=O)OC2=C1C=CC(=C2)O | 119 | 129 | 122 | 133 | 120 | 130 | 120 | 118 | 113 | 110 | 104 | 116 | 122 | 117 | 111 | 119 | 122 | 105 | 120 | 117 | 123 | 106 | 117 | 118 | 120 | 118 | 110 | 108 | 104 | 102 | 109 | 113 | 90.7
16 | COC1CCC(CC1)N(C(=O)C2CCC(C)CC2)C3=C(SC(=C3)\C4=C\CCCC4)C(O)=O (centres undefined) | 120 | 120 | 109 | 127 | 128 | 130 | 107 | 112 | 106 | 90.9 | 52.6 | 103 | 115 | 104 | 119 | 102 | 104 | 91.5 | 105 | 103 | 90.7 | 96 | 102 | 102 | 120 | 102 | 110 | 99.4 | 97 | 109 | 104 | 93.4 | 84.5
